Data reported in the supplement of paper PMC10307832.

Experiments:
Experiment in all cases: relative viability (nuclei count vs DMSO), 5 days (fraction); higher = more cells survive
EBC-1 = tested on: EBC-1
Procedure, shortened: (§1)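 Relative viability divides the nuclei count in treated wells by that in vehicle wells. Lung cancer cell lines were seeded in 1536-well plates, dosed by pin tool the next day, and fixed and stained after 5 days in one step with final 0.05% Triton X-100, 1% formaldehyde and 1 ug/ml Hoechst. Dosing was a single drug or a fixed anchor-drug dose plus five library-drug doses (not always all listed) in √10 steps, and values are medians of duplicate plates imaged at 4×.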

NCI-H1734 = tested on: NCI-H1734
Procedure, shortened: as §1

Calu-6 = tested on: Calu-6
Procedure, shortened: as §1

UMC-11 = tested on: UMC-11
Procedure, shortened: as §1

NCI-H1299 = tested on: NCI-H1299
Procedure, shortened: as §1

NCI-H1703 = tested on: NCI-H1703
Procedure, shortened: as §1

CAL-12T = tested on: CAL-12T
Procedure, shortened: as §1

A549 = tested on: A549
Procedure, shortened: as §1

LK-2 = tested on: LK-2
Procedure, shortened: as §1

NCI-H2009 = tested on: NCI-H2009
Procedure, shortened: as §1

A-427 = tested on: A-427
Procedure, shortened: as §1

IA-LM = tested on: IA-LM
Procedure, shortened: as §1

Cc1sc2c(c1C)C(c1ccc(Cl)cc1)=N[C@@H](CC(=O)OC(C)(C)C)c1nnc(C)n1-2 [JQ1] + C[C@]1(O)C[C@@H](c2nc(-c3ccc4ccc(-c5ccccc5)nc4c3)c3c(N)nccn32)C1 [Linsitinib] (partner 1 µM)
relative viability (EBC-1; first compound 0.04 µM): 0.8 | relative viability (EBC-1; first compound 0.1265 µM): 0.523 | relative viability (EBC-1; first compound 0.4 µM): 0.332 | relative viability (EBC-1; first compound 1.265 µM): 0.112 | relative viability (EBC-1; first compound 4 µM): 0.112 | relative viability (NCI-H1734; first compound 0.04 µM): 0.831 | relative viability (NCI-H1734; first compound 0.1265 µM): 0.823 | relative viability (NCI-H1734; first compound 0.4 µM): 0.879 | relative viability (NCI-H1734; first compound 1.265 µM): 0.63 | relative viability (NCI-H1734; first compound 4 µM): 0.418 | relative viability (Calu-6; first compound 0.04 µM): 0.931 | relative viability (Calu-6; first compound 0.1265 µM): 0.793 | relative viability (Calu-6; first compound 0.4 µM): 0.905 | relative viability (Calu-6; first compound 1.265 µM): 0.639 | relative viability (Calu-6; first compound 4 µM): 0.313 | relative viability (UMC-11; first compound 0.04 µM): 0.866 | relative viability (UMC-11; first compound 0.1265 µM): 0.793 | relative viability (UMC-11; first compound 0.4 µM): 0.321 | relative viability (UMC-11; first compound 1.265 µM): 0.237 | relative viability (UMC-11; first compound 4 µM): 0.203 | relative viability (NCI-H1299; first compound 0.04 µM): 0.97 | relative viability (NCI-H1299; first compound 0.1265 µM): 0.781 | relative viability (NCI-H1299; first compound 0.4 µM): 0.883 | relative viability (NCI-H1299; first compound 1.265 µM): 0.36 | relative viability (NCI-H1299; first compound 4 µM): 0.238 | relative viability (NCI-H1703; first compound 0.04 µM): 0.95 | relative viability (NCI-H1703; first compound 0.4 µM): 0.404 | relative viability (NCI-H1703; first compound 1.265 µM): 0.33 | relative viability (NCI-H1703; first compound 4 µM): 0.396 | relative viability (CAL-12T; first compound 0.04 µM): 0.793 | relative viability (CAL-12T; first compound 0.1265 µM): 0.794 | relative viability (CAL-12T; first compound 0.4 µM): 0.68 | relative viability (CAL-12T; first compound 1.265 µM): 0.275 | relative viability (CAL-12T; first compound 4 µM): 0.232 | relative viability (A549; first compound 0.04 µM): 0.613 | relative viability (A549; first compound 0.1265 µM): 0.534 | relative viability (A549; first compound 0.4 µM): 0.561 | relative viability (A549; first compound 1.265 µM): 0.314 | relative viability (A549; first compound 4 µM): 0.226 | relative viability (LK-2; first compound 0.04 µM): 0.393 | relative viability (LK-2; first compound 0.1265 µM): 0.662 | relative viability (LK-2; first compound 0.4 µM): 0.233 | relative viability (LK-2; first compound 1.265 µM): 0.176 | relative viability (LK-2; first compound 4 µM): 0.109 | relative viability (NCI-H2009; first compound 0.04 µM): 1.13 | relative viability (NCI-H2009; first compound 0.1265 µM): 0.995 | relative viability (NCI-H2009; first compound 0.4 µM): 0.724 | relative viability (NCI-H2009; first compound 1.265 µM): 0.279 | relative viability (NCI-H2009; first compound 4 µM): 0.263 | relative viability (A-427; first compound 0.04 µM): 1.19 | relative viability (A-427; first compound 0.1265 µM): 1.04 | relative viability (A-427; first compound 0.4 µM): 1.14 | relative viability (A-427; first compound 1.265 µM): 1.06 | relative viability (A-427; first compound 4 µM): 0.721 | relative viability (IA-LM; first compound 0.04 µM): 0.406 | relative viability (IA-LM; first compound 0.1265 µM): 0.098 | relative viability (IA-LM; first compound 0.4 µM): 0.153 | relative viability (IA-LM; first compound 1.265 µM): 0.106 | relative viability (IA-LM; first compound 4 µM): 0.0793

CC(=O)O[C@@]12CO[C@@H]1C[C@H](O)[C@@]1(C)C(=O)[C@H](O)C3=C(C)[C@@H](OC(=O)[C@H](O)[C@@H](NC(=O)OC(C)(C)C)c4ccccc4)C[C@@](O)([C@@H](OC(=O)c4ccccc4)[C@H]21)C3(C)C [Docetaxel] + Cc1nc(NC(=O)N2CCC[C@H]2C(N)=O)sc1-c1ccnc(C(C)(C)C(F)(F)F)c1 [Alpelisib] (partner 2 µM)
relative viability (EBC-1; first compound 0.0002 µM): 0.797 | relative viability (EBC-1; first compound 0.000632 µM): 0.576 | relative viability (EBC-1; first compound 0.002 µM): 0.275 | relative viability (EBC-1; first compound 0.006325 µM): 0.267 | relative viability (EBC-1; first compound 0.02 µM): 0.174 | relative viability (NCI-H1734; first compound 0.0002 µM): 0.614 | relative viability (NCI-H1734; first compound 0.000632 µM): 0.67 | relative viability (NCI-H1734; first compound 0.002 µM): 0.406 | relative viability (NCI-H1734; first compound 0.006325 µM): 0.355 | relative viability (NCI-H1734; first compound 0.02 µM): 0.267 | relative viability (Calu-6; first compound 0.0002 µM): 1.03 | relative viability (Calu-6; first compound 0.000632 µM): 0.99 | relative viability (Calu-6; first compound 0.002 µM): 0.432 | relative viability (Calu-6; first compound 0.006325 µM): 0.147 | relative viability (Calu-6; first compound 0.02 µM): 0.115 | relative viability (UMC-11; first compound 0.0002 µM): 0.963 | relative viability (UMC-11; first compound 0.000632 µM): 0.841 | relative viability (UMC-11; first compound 0.002 µM): 0.195 | relative viability (UMC-11; first compound 0.006325 µM): 0.176 | relative viability (UMC-11; first compound 0.02 µM): 0.153 | relative viability (NCI-H1299; first compound 0.0002 µM): 1.05 | relative viability (NCI-H1299; first compound 0.000632 µM): 1.06 | relative viability (NCI-H1299; first compound 0.002 µM): 1.01 | relative viability (NCI-H1299; first compound 0.006325 µM): 0.605 | relative viability (NCI-H1299; first compound 0.02 µM): 0.431 | relative viability (NCI-H1703; first compound 0.0002 µM): 0.406 | relative viability (NCI-H1703; first compound 0.000632 µM): 0.442 | relative viability (NCI-H1703; first compound 0.006325 µM): 0.125 | relative viability (NCI-H1703; first compound 0.02 µM): 0.109 | relative viability (CAL-12T; first compound 0.0002 µM): 1.06 | relative viability (CAL-12T; first compound 0.000632 µM): 0.699 | relative viability (CAL-12T; first compound 0.002 µM): 0.201 | relative viability (CAL-12T; first compound 0.02 µM): 0.154 | relative viability (A549; first compound 0.0002 µM): 0.752 | relative viability (A549; first compound 0.000632 µM): 0.668 | relative viability (A549; first compound 0.002 µM): 0.0866 | relative viability (A549; first compound 0.006325 µM): 0.0749 | relative viability (A549; first compound 0.02 µM): 0.034 | relative viability (LK-2; first compound 0.0002 µM): 1.03 | relative viability (LK-2; first compound 0.000632 µM): 0.685 | relative viability (LK-2; first compound 0.002 µM): 0.262 | relative viability (LK-2; first compound 0.006325 µM): 0.244 | relative viability (LK-2; first compound 0.02 µM): 0.231 | relative viability (NCI-H2009; first compound 0.0002 µM): 1.13 | relative viability (NCI-H2009; first compound 0.000632 µM): 1.16 | relative viability (NCI-H2009; first compound 0.002 µM): 0.988 | relative viability (NCI-H2009; first compound 0.006325 µM): 0.765 | relative viability (NCI-H2009; first compound 0.02 µM): 0.157 | relative viability (A-427; first compound 0.0002 µM): 1.02 | relative viability (A-427; first compound 0.000632 µM): 1.14 | relative viability (A-427; first compound 0.002 µM): 0.974 | relative viability (A-427; first compound 0.006325 µM): 0.204 | relative viability (A-427; first compound 0.02 µM): 0.164 | relative viability (IA-LM; first compound 0.0002 µM): 0.595 | relative viability (IA-LM; first compound 0.000632 µM): 0.232 | relative viability (IA-LM; first compound 0.002 µM): 0.116 | relative viability (IA-LM; first compound 0.006325 µM): 0.0821 | relative viability (IA-LM; first compound 0.02 µM): 0.0716
